Experimental data taken from patent US20190111059A1, “COMPOSITIONS AND METHODS FOR TREATING AUTISM SPECTRUM DISORDER” (Marinus Pharmaceuticals, Inc., priority 2017, published 2019).
Where a name gives a salt, the structure may show the parent alone.

Legend:
[1] = cited from earlier work
[2] = system: children with non-syndromic autism spectrum disorder (ASD) and language impairment; assay: Randomized placebo-controlled trial: Autism Impact Measure (AIM); assay type: in vivo, human; details: lower = less impact
Experimental: The Autism Impact Measure (“AIM”) is a 45-item parent-reported measure of the frequency and impact of core ASD symptoms during the past 2 weeks using two 5-point scales of increasing severity ranging from 1 to 5.51 The Frequency and Impact scores range 45-225. This two-arm double-blind randomized placebo-controlled parallel study with a 1:1 allocation was performed at Arkansas Children's Research Institute (Little Rock, Ark., USA) from 4 Jun. 2012 to 22 Nov. 2013. Parent and teacher questionnaires were requested at baseline and 6 and 12 weeks after starting treatment. Parents were asked to deliver baseline questionnaires to teachers or therapists. After the first visit, questionnaires were mailed to the parents and teachers at least 1 week prior to the target date of completion. Parents were asked to bring the completed teacher and parent 12-week questionnaires to the final assessment. Other questionnaires were returned in a preaddressed postage-paid envelope. The target dose of the intervention (INN: DL folinic acid calcium salt; USAN: leucovorin calcium) was 2 mg kg^−1 per day (maximum 50 mg per day) in two equally divided doses with half of the target dose given during the first 2 weeks. Dye-free, milk-product-free, vegetarian capsules were provided in three strengths (5, 10 and 25 mg) by Lee Silsby Compounding Pharmacy (Cleveland Heights, Ohio, USA). Certificate of analysis was provided for each capsule strength by an independent analytical service (Eagle Analytical Services, Houston, Tex., USA) for each batch of capsules produced. In all cases, potency was at least 99%. Secondary outcomes. Secondary outcome measures included the Ohio Autism Clinical Impression Scale (OACIS), Vineland Adaptive Behavior Scale 2nd Edition (VABS) Survey Interview Form and several questionnaires. Parents and teachers were asked to complete the Aberrant Behavior Checklist (ABC), Social Responsiveness Scale (SRS) and Behavioral Assessment System for Children 2nd Edition (BASC). Only parents were asked to complete the Autism Impact Measure (AIM) and Autism Symptoms Questionnaire (ASQ). Secondary outcome measures were analyzed using the mixed-model regression. Because of the large number of secondary outcomes, correction for multiple comparisons was conducted using the false discovery rate.

[3] = system: children with non-syndromic autism spectrum disorder (ASD) and language impairment; assay: Randomized placebo-controlled trial: Social Responsiveness Scale (SRS); assay type: in vivo, human; details: lower = less social symptoms
Excerpt: The Social Responsiveness Scale (“SRS”) is a 65-item questionnaire that measures social skills across five domains: Social Awareness (8 items, meaningful change 7.1), Social Cognition (12 items, meaningful change 5.8), Social Communication (22 items, meaningful change 4.2), Social Motivation (11 items, meaningful change 5.7), Autistic Mannerisms (12 items, meaningful change 5.5) and total (65 items). Each item is rated 0 to 3 with higher scores indicating greater severity. Standardized T-scores (mean 50, standard deviation 10) range 30-90. This two-arm double-blind randomized placebo-controlled parallel study with a 1:1 allocation was performed at Arkansas Children's Research Institute (Little Rock, Ark., USA) from 4 Jun. 2012 to 22 Nov. 2013. Parent and teacher questionnaires were requested at baseline and 6 and 12 weeks after starting treatment. Parents were asked to deliver baseline questionnaires to teachers or therapists. After the first visit, questionnaires were mailed to the parents and teachers at least 1 week prior to the target date of completion. Parents were asked to bring the completed teacher and parent 12-week questionnaires to the final assessment. Other questionnaires were returned in a preaddressed postage-paid envelope. The target dose of the intervention (INN: DL folinic acid calcium salt; USAN: leucovorin calcium) was 2 mg kg^−1 per day (maximum 50 mg per day) in two equally divided doses with half of the target dose given during the first 2 weeks. Dye-free, milk-product-free, vegetarian capsules were provided in three strengths (5, 10 and 25 mg) by Lee Silsby Compounding Pharmacy (Cleveland Heights, Ohio, USA). Certificate of analysis was provided for each capsule strength by an independent analytical service (Eagle Analytical Services, Houston, Tex., USA) for each batch of capsules produced. In all cases, potency was at least 99%. Secondary outcomes. Secondary outcome measures included the Ohio Autism Clinical Impression Scale (OACIS), Vineland Adaptive Behavior Scale 2nd Edition (VABS) Survey Interview Form and several questionnaires. Parents and teachers were asked to complete the Aberrant Behavior Checklist (ABC), Social Responsiveness Scale (SRS) and Behavioral Assessment System for Children 2nd Edition (BASC). Only parents were asked to complete the Autism Impact Measure (AIM) and Autism Symptoms Questionnaire (ASQ). Secondary outcome measures were analyzed using the mixed-model regression. Because of the large number of secondary outcomes, correction for multiple comparisons was conducted using the false discovery rate.

[4] = vs placebo, mixed-model regression

## Nc1nc2c(c(=O)[nH]1)N(C=O)C(CNc1ccc(C(=O)N[C@@H](CCC(=O)O)C(=O)O)cc1)CN2 (mixture of isomers) [Folinic acid, DL folinic acid calcium salt]
[1]
  Absorption following oral administration: rapidly absorbed
[2]; 2 mg kg^−1 per day, 12 weeks, baseline 105
  AIM Impact, 12-week assessment mean: 87 Raw Scores
[2]; 2 mg kg^−1 per day, 12 weeks, baseline 135
  AIM Frequency, 12-week assessment mean: 114 Raw Scores
[2]; [4]
  AIM Frequency, estimated effect: −2.2 Raw Scores
  AIM Impact, estimated effect: 3.4 Raw Scores
[3]; 2 mg kg^−1 per day, 12 weeks, baseline 75.5
  SRS Motivation, 12-week assessment mean: 70.3 T-Scores
[3]; 2 mg kg^−1 per day, 12 weeks, baseline 79.2
  SRS Awareness, 12-week assessment mean: 78.7 T-Scores
[3]; 2 mg kg^−1 per day, 12 weeks, baseline 82.5
  SRS Communication, 12-week assessment mean: 80.1 T-Scores
[3]; 2 mg kg^−1 per day, 12 weeks, baseline 83.4
  SRS Mannerisms, 12-week assessment mean: 80.5 T-Scores
[3]; 2 mg kg^−1 per day, 12 weeks, baseline 83.7
  SRS Cognition, 12-week assessment mean: 79.3 T-Scores
[3]; 2 mg kg^−1 per day, 12 weeks, baseline 84.9
  SRS Total, 12-week assessment mean: 82.2 T-Scores
[3]; [4]
  SRS Awareness, estimated effect: 0.3 T-Scores
  SRS Cognition, estimated effect: 0.8 T-Scores
  SRS Communication, estimated effect: 1.5 T-Scores
  SRS Mannerisms, estimated effect: 0.9 T-Scores
  SRS Motivation, estimated effect: 0.2 T-Scores
  SRS Total, estimated effect: 0.8 T-Scores
